In patent US9908873B2, “GPR40 agonists for the treatment of type II diabetes” (Janssen Pharmaceutica NV, priority 2015, dated 2018):
Values joined by “and” are separate entries in the source; they are usually repeats but may differ in a detail not shown here. Equal values may be shown once.

The molecules below were run against T1, human GPR40 (Homo sapiens, UniProt O14842) (assay: GPR40 Calcium Flux Assay). Conditions: transfected HEK293 cells stably expressing human GPR40; calcium-sensitive fluorescent dye; read-out: hGPR40 Ca^2+ Assay EC50.
T1 construct: expressed in transfected cells
T1 sequence (O14842 whole entry): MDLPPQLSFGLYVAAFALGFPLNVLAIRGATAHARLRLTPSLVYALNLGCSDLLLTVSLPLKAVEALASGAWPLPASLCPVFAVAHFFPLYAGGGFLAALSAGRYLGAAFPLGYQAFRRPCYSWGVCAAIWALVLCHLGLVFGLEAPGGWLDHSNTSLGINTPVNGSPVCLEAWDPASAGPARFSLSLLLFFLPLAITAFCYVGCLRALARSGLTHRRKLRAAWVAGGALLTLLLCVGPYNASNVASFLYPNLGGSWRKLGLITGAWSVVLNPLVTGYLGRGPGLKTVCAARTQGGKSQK
Assay type: cell-based
Protocol: Compounds were tested in a calcium flux assay using transfected HEK293 cells stably expressing either human GPR40 or rat GPR40. Human GPR40 expressing cells were cultured in DMEM-High Glucose media supplemented with 10% fetal bovine serum, 1×L-Glutamine, 1×Penicillin/Streptomycin and 500 μg/mL G418. Rat GPR40 expressing cells were cultured in DMEM-High Glucose media supplemented with 10% fetal bovine serum and 1 μg/mL puromycin. Cells were plated into poly-D-lysine coated 384-well plates and cultured overnight in a 37° C. humidified tissue culture incubator under 5% CO2/[…] atmosphere. On the day of the experiment, the culture media was replaced with assay buffer (HBSS, 20 mM HEPES, 0.1% BSA) and the cells incubated at 37° C. for 1 h. Calcium-sensitive fluorescent dye (Fluo 8 No-Wash Calcium Dye, ABD Bioquest) was then added and the cells incubated for another 30 min at 37° C. followed by 15 min at room temperature while protected from the light. The cell plate and a plate of diluted compounds of Formula (II) were loaded into a fluorescent plate reader that added compounds onto the cells while measuring the fluorescence intensity of each well. The plate reader recorded fluorescence intensity at 1 second intervals for 8 min and provided the data for analysis in an Excel format. EC50 values were calculated using Prism (GraphPad) software.

| Compound | EC50 |
| --- | --- |
| COc1ccc(F)c(-c2noc(/C=C/c3cccc(C(CC(=O)O)C4CC4)c3)c2C2CC2)c1 (stereo in doubt) [Cpd 58, (3S)-3-cyclopropyl-3-[3-[(E)-2-[4-cyclopropyl-3-(2-fluoro-5-methoxy-phenyl)isoxazol-5-yl]vinyl]phenyl]propanoic acid] | 26 nM |
| COc1ccc(F)c(-c2noc(COc3cc(C(CC(=O)O)C4CC4)ccn3)c2C2=CCCC2(C)C)c1 (stereo not shown) [Cpd 53, 3-cyclopropyl-3-[2-[[4-(5,5-dimethylcyclopenten-1-yl)-3-(2-fluoro-5-methoxy-phenyl)isoxazol-5-yl]methoxy]-4-pyridyl]propanoic acid] | 1 nM |
| COc1ccc(F)c(-c2noc(CCc3cccc([C@@H](CC(=O)O)C4CC4)c3)c2C2CCCC2(C)C)c1 (stereo partly drawn) [Cpd 54, (3S)-3-cyclopropyl-3-[3-[2-[4-(2,2-dimethylcyclopentyl)-3-(2-fluoro-5-methoxy-phenyl)isoxazol-5-yl]ethyl]phenyl]propanoic acid] | 1 nM |
| COc1ccc(F)c(-c2noc(COc3cc(C(CC(=O)O)C4CC4)c(Cl)cn3)c2C2=CCCC2(C)C)c1 (stereo not shown) [Cpd 55, 3-[5-chloro-2-[[4-(5,5-dimethylcyclopenten-1-yl)-3-(2-fluoro-5-methoxy-phenyl)isoxazol-5-yl]methoxy]-4-pyridyl]-3-cyclopropyl-propanoic acid] | 22 nM |
| COc1ccc(F)c(-c2noc(/C=C/c3cccc([C@@H](CC(=O)O)C4CC4)c3)c2C2=CCCC2(C)C)c1 [Cpd 56, (3S)-3-cyclopropyl-3-[3-[(E)-2-[4-(5,5-dimethylcyclopenten-1-yl)-3-(2-fluoro-5-methoxy-phenyl)isoxazol-5-yl]vinyl]phenyl]propanoic acid] | 23 nM |
| COc1ccc(F)c(-c2noc(CCc3cccc([C@@H](CC(=O)O)C4CC4)c3)c2C2CC2)c1 [Cpd 57, (3S)-3-cyclopropyl-3-[3-[2-[4-cyclopropyl-3-(2-fluoro-5-methoxy-phenyl)isoxazol-5-yl]ethyl]phenyl]propanoic acid] | 25 nM |
| COc1ccc(F)c(-c2noc(/C=C\c3cccc([C@@H](CC(=O)O)C4CC4)c3)c2C2=CCCC2(C)C)c1 [Cpd 59, (3S)-3-cyclopropyl-3-[3-[(Z)-2-[4-(5,5-dimethylcyclopenten-1-yl)-3-(2-fluoro-5-methoxy-phenyl)isoxazol-5-yl]vinyl]phenyl]propanoic acid] | 252 nM |
| COc1ccc(F)c(-c2cc(COc3cccc([C@@H](CC(=O)O)C4CC4)c3)sc2C(C)(C)C)c1 [Cpd 60, (3S)-3-[3-[[5-tert-butyl-4-(2-fluoro-5-methoxy-phenyl)-2-thienyl]methoxy]phenyl]-3-cyclopropyl-propanoic acid] | 56 nM and 29 nM |
| COc1ccc(F)c(-c2nsc(COc3cccc([C@@H](CC(=O)O)C4CC4)c3)c2C2=CCCC2(C)C)c1 [Cpd 61, (3S)-3-cyclopropyl-3-[3-[[4-(5,5-dimethylcyclopenten-1-yl)-3-(2-fluoro-5-methoxy-phenyl)isothiazol-5-yl]methoxy]phenyl]propanoic acid] | 260 nM and 205 nM |
| COc1ccc(F)c(-c2noc(COc3cccc([C@@H](CC(=O)O)C4CC4)c3)c2C2=CCCC2(C)C)c1 [Cpd 62, (3S)-3-cyclopropyl-3-[3-[[4-(5,5-dimethylcyclopenten-1-yl)-3-(2-fluoro-5-methoxy-phenyl)isoxazol-5-yl]methoxy]phenyl]propanoic acid] | 1 nM |
